Experimental data as given in patent publication US9296723B2, “NAMPT inhibitors” (AbbVie Inc., priority 2012, dated 2016).

What was measured:
NAMPT [1] = target: T1, NAMPT (Homo sapiens, UniProt P43490); test: Time-Resolved Fluorescence Resonance Energy Transfer (TR-FRET) Binding Assay of NAMPT; conditions: 6.8 nM NAMPT, 200 nM probe, equilibrated 3 hours, no substrates
Outline: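 IC50s come from four-parameter logistic fits of control-normalized Em520/Em495 TR-FRET ratios (Ex 337 nm) against compound concentration. Before reading, enzyme, probe, antibody and compound equilibrated for 3 h at room temperature.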

NAMPT [2] = target: T1, NAMPT; test: TR-FRET Binding Assay of NAMPT with PRPP; conditions: 2 nM NAMPT, 2 nM probe, 200 µM PRPP and 2.5 mM ATP, equilibrated 16 hours
Outline: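 Substrates present: PRPP at 200 µM and ATP at 2.5 mM, final, alongside 2 nM enzyme, 2 nM tracer and 1 nM terbium anti-His donor in 2% DMSO. A 16-hour equilibration preceded the time-resolved FRET read, allowing compounds to be enzymatically modified.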

PC3 cells = test: NAMPT Cell Proliferation Assay (Cell Titer Glo); assay type: cell-based; conditions: Homo sapiens, PC-3, 120 h, incubated 5 days, cell viability
Outline: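 Viability measured by Cell Titer Glo luminescence after 5-day exposure of attached PC3 cells to compound, dosed as 10-fold serial dilutions ([…]) in RPMI/10% FBS at 37 °C and 5% CO2. Percent inhibition fitted to sigmoidal dose-response curves for IC50.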

T1 sequence (P43490 whole entry): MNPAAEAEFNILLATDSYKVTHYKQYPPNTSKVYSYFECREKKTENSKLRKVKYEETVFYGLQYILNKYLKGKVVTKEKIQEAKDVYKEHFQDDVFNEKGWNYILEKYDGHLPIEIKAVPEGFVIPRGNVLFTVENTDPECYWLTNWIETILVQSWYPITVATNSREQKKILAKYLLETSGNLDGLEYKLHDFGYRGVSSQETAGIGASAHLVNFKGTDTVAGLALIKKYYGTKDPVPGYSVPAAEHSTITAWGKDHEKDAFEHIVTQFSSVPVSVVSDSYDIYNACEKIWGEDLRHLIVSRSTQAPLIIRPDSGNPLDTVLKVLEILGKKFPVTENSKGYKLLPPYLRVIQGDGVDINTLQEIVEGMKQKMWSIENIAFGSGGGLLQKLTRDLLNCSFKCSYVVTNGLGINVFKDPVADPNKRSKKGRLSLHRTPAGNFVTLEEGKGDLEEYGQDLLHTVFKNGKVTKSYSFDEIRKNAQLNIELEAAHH

SMILES	IC50 (NAMPT [1]) [nM]	IC50 (NAMPT [2]) [nM]	IC50 (PC3 cells) [nM]
CCCC(=O)N1CCC(Oc2ccc(NC(=O)N3CC(c4cccnc4)C3)cc2)CC1 [Example 43, N-{4-[(1-butanoylpiperidin-4-yl)oxy]phenyl}-3-(pyridin-3-yl)azetidine-1-carboxamide]	23.7	0.234	28
CC1CC1C(=O)N1CCC(Oc2ccc(NC(=O)N3CC(c4cccnc4)C3)cc2)CC1 (stereo not drawn) [Example 35, N-[4-({1-[(2-methylcyclopropyl)carbonyl]piperidin-4-yl}oxy)phenyl]-3-(pyridin-3-yl)azetidine-1-carboxamide]	89.2	0.492	90.2
O=C(CC1CC2CCC1C2)N1CCC(Oc2ccc(NC(=O)N3CC(c4cccnc4)C3)cc2)C1 (stereo not drawn) [Example 299, N-(4-{[1-(bicyclo[2.2.1]hept-2-ylacetyl)pyrrolidin-3-yl]oxy}phenyl)-3-(pyridin-3-yl)azetidine-1-carboxamide]	64.9	0.451	14.6
O=C(Nc1ccc(C2CN(CC3CCCCC3)C2)cc1)N1CC(c2cccnc2)C1 [Example 246, N-{4-[1-(cyclohexylmethyl)azetidin-3-yl]phenyl}-3-(pyridin-3-yl)azetidine-1-carboxamide]	437	0.213	622
O=C(Nc1ccc(C2CCN(C(=O)C3CCCC3)C2)cc1)N1CC(c2cccnc2)C1 (stereo not drawn) [Example 295, N-{4-[1-(cyclopentylcarbonyl)pyrrolidin-3-yl]phenyl}-3-(pyridin-3-yl)azetidine-1-carboxamide]	50.7	0.272	66.5
CC(C)C(=O)N1CC(Oc2ccc(NC(=O)N3CC(c4cccnc4)C3)cc2)C1 [Example 127, N-(4-{[1-(2-methylpropanoyl)azetidin-3-yl]oxy}phenyl)-3-(pyridin-3-yl)azetidine-1-carboxamide]	93.4	0.603	71
CCCCC(=O)N1CC[C@@H](Oc2ccc(NC(=O)N3CC(c4cccnc4)C3)cc2)C1 [Example 297, N-(4-{[(3R)-1-pentanoylpyrrolidin-3-yl]oxy}phenyl)-3-(pyridin-3-yl)azetidine-1-carboxamide]	56.6	0.236	18.2
CC[C@H](C)C(=O)N1CC=C(c2ccc(NC(=O)N3CC(c4cccnc4)C3)cc2)CC1 [Example 9, N-(4-{1-[(2S)-2-methylbutanoyl]-1,2,3,6-tetrahydropyridin-4-yl}phenyl)-3-(pyridin-3-yl)azetidine-1-carboxamide]	16.3	0.346	6.82
CCC(C)CC(=O)N1CC(Oc2ccc(NC(=O)N3CC(c4cccnc4)C3)cc2)C1 (stereo not drawn) [Example 121, N-(4-{[1-(3-methylpentanoyl)azetidin-3-yl]oxy}phenyl)-3-(pyridin-3-yl)azetidine-1-carboxamide]	18.6	0.497	7.73
CCC(C)CC(=O)N1CC(c2ccc(NC(=O)N3CC(c4cccnc4)C3)cc2)C1 (stereo not drawn) [Example 202, N-{4-[1-(3-methylpentanoyl)azetidin-3-yl]phenyl}-3-(pyridin-3-yl)azetidine-1-carboxamide]	51.1	0.327	65.5
O=C(CC1CCCCC1)N1CC[C@@H](Oc2ccc(NC(=O)N3CC(c4cccnc4)C3)cc2)C1 [Example 317, N-(4-{[(3R)-1-(cyclohexylacetyl)pyrrolidin-3-yl]oxy}phenyl)-3-(pyridin-3-yl)azetidine-1-carboxamide]	29.9	0.207	55.4
CC(C)(C)C(=O)N1CCC(Oc2ccc(NC(=O)N3CC(c4cccnc4)C3)cc2)CC1 [Example 44, N-(4-{[1-(2,2-dimethylpropanoyl)piperidin-4-yl]oxy}phenyl)-3-(pyridin-3-yl)azetidine-1-carboxamide]	44.6	0.315	38.5
O=C(CCC(F)(F)F)N1CCC(c2ccc(NC(=O)N3CC(c4cccnc4)C3)cc2)CC1 [Example 179, 3-(pyridin-3-yl)-N-{4-[1-(4,4,4-trifluorobutanoyl)piperidin-4-yl]phenyl}azetidine-1-carboxamide]	32.5	0.249	76.9
O=C(Nc1ccc(C2CN(C(=O)C3CC3)C2)cc1)N1CC(c2cccnc2)C1 [Example 109, N-{4-[1-(cyclopropylcarbonyl)azetidin-3-yl]phenyl}-3-(pyridin-3-yl)azetidine-1-carboxamide]	306	0.596	110
O=C(NCC1CCOC1)c1ccc(NC(=O)N2CC(c3cccnc3)C2)cc1 (stereo not drawn) [Example 49, 3-(pyridin-3-yl)-N-{4-[(tetrahydrofuran-3-ylmethyl)carbamoyl]phenyl}azetidine-1-carboxamide]	150	0.245	80.1
CC(C)(O)C(=O)N1CC(c2ccc(NC(=O)N3CC(c4cccnc4)C3)cc2)C1 [Example 106, N-{4-[1-(2-hydroxy-2-methylpropanoyl)azetidin-3-yl]phenyl}-3-(pyridin-3-yl)azetidine-1-carboxamide]	204	0.553	576
CC(C)(C)C(=O)N1CC(c2ccc(NC(=O)N3CC(c4cccnc4)C3)cc2)C1 [Example 206, N-{4-[1-(2,2-dimethylpropanoyl)azetidin-3-yl]phenyl}-3-(pyridin-3-yl)azetidine-1-carboxamide]	49.1	0.26	63.4
O=C(Nc1ccc(C2CN(C(=O)c3ccoc3)C2)cc1)N1CC(c2cccnc2)C1 [Example 216, N-{4-[1-(furan-3-ylcarbonyl)azetidin-3-yl]phenyl}-3-(pyridin-3-yl)azetidine-1-carboxamide]	18.4	0.256	20.5
CC1(C(=O)N2CC(Oc3ccc(NC(=O)N4CC(c5cccnc5)C4)cc3)C2)CCCCC1 [Example 152, N-[4-({1-[(1-methylcyclohexyl)carbonyl]azetidin-3-yl}oxy)phenyl]-3-(pyridin-3-yl)azetidine-1-carboxamide]	5.18	0.42	6.04
CC(C)(C)OC(=O)N1CCC(c2ccc(NC(=O)N3CC(c4cccnc4F)C3)cc2)CC1 [Example 116, tert-butyl 4-[4-({[3-(2-fluoropyridin-3-yl)azetidin-1-yl]carbonyl}amino)phenyl]piperidine-1-carboxylate]	26.7	0.744	135
CCC(=O)N1CC[C@@H](Oc2ccc(NC(=O)N3CC(c4cccnc4)C3)cc2)C1 [Example 319, N-(4-{[(3R)-1-propanoylpyrrolidin-3-yl]oxy}phenyl)-3-(pyridin-3-yl)azetidine-1-carboxamide]	70.6	0.426	30.7
O=C(Nc1ccc(C2CCN(C(=O)c3ccsc3)C2)cc1)N1CC(c2cccnc2)C1 (stereo not drawn) [Example 268, 3-(pyridin-3-yl)-N-{4-[1-(thiophen-3-ylcarbonyl)pyrrolidin-3-yl]phenyl}azetidine-1-carboxamide]	36.5	0.225	22.8
CCC(C)(C)C(=O)N1CCC(c2ccc(NC(=O)N3CC(c4cccnc4)C3)cc2)CC1 [Example 169, N-{4-[1-(2,2-dimethylbutanoyl)piperidin-4-yl]phenyl}-3-(pyridin-3-yl)azetidine-1-carboxamide]	5.36	0.304	7.98
